# Experimental data: article PMC2878737 (Channels (Austin, Tex.), 2009)
# Biological target: NaV1.2 (Rattus norvegicus, UniProt P04775)
# Sequence (P04775 whole entry, looked up): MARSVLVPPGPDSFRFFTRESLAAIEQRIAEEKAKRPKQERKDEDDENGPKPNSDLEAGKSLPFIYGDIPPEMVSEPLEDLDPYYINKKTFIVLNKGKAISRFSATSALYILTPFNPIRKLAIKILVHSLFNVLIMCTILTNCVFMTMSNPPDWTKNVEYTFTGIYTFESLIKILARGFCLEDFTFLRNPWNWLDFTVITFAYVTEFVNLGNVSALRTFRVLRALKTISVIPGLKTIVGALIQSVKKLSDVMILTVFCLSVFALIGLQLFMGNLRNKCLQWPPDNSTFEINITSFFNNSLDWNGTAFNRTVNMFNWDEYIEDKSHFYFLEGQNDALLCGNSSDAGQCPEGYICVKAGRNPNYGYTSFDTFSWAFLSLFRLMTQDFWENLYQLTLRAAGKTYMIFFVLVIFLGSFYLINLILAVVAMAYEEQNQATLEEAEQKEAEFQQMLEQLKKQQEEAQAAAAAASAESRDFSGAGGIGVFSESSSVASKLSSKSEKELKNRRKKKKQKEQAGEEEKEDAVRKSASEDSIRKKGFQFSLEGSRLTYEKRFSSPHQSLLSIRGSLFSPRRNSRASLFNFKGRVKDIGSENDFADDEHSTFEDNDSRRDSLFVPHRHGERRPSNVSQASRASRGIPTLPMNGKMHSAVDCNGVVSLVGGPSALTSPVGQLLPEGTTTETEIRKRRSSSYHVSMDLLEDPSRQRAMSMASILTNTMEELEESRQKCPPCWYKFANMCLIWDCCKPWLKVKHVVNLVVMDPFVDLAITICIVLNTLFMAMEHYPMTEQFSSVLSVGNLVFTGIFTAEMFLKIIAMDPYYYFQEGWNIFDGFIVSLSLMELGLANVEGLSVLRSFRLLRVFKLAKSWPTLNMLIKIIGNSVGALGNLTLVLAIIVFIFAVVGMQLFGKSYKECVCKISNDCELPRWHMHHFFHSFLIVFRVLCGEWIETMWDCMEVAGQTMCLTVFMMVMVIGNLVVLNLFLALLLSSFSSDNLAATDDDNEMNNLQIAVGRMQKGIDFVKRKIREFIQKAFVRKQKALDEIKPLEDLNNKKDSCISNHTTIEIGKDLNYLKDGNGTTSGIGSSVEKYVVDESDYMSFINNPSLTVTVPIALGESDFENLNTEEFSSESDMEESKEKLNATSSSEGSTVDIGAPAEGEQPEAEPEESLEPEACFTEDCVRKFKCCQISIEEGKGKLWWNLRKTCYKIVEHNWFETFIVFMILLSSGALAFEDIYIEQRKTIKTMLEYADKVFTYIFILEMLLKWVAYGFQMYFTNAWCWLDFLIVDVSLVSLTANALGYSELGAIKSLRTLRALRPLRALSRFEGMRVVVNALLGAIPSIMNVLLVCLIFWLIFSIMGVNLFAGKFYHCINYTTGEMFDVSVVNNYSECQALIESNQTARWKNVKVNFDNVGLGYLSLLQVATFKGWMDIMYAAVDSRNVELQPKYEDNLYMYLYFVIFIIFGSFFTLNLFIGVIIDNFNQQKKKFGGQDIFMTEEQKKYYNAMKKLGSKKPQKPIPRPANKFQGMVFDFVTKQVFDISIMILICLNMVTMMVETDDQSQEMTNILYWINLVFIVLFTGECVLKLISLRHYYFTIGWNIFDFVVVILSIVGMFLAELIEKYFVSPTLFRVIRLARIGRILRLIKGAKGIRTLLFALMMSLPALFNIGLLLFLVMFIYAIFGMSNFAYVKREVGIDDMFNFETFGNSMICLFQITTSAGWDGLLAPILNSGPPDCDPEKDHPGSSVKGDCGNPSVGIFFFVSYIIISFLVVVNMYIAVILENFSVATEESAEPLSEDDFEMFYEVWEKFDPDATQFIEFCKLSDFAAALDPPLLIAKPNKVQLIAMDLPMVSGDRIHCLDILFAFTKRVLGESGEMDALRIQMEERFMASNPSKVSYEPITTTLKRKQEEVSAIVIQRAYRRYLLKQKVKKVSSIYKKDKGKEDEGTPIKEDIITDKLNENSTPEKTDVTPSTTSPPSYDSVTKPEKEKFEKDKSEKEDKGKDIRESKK
structure (smiles),measurement,value
"NC1=N[C@H](O)[C@H]2[C@H]3O[C@]4(O)O[C@@H]([C@@H](O)[C@@]2(N1)[C@@H]4O)[C@]3(O)CO [TTX, Tetrodotoxin]",block of residual INa persisting with KIIIA or KIIIA[K7A],completely blocked
